What was measured:
[1] = biological target: Isocitrate dehydrogenase [NADP], mitochondrial (Homo sapiens, UniProt P48735, R140Q); experiment: Inhibition of IDH2 R140Q mutant (unknown origin) using alpha-ketoglutarate as substrate preincubated with compound for 16 hrs followed by substrate addition and measured after 1 hr in presence of NADPH by fluorescence based analysis
[2] = Inhibition of IDH2 R140Q mutant in human U-87 MG cells incubated for 72 hrs by measuring 2-HG production by fluorescence based analysis; type: functional, cell-based, U-87MG ATCC
[3] = Apparent permeability across apical to basolateral side in human Caco-2 cells at 10 uM incubated for 1 hrs by LC-MS/MS analysis
[4] = Metabolic stability in male ICR mouse liver microsomes assessed as parent compound remaining at 1 uM measured after 30 mins in presence of NADPH by LC-MS analysis; type: ADME, Microsome; conditions: read-out: Stability
[5] = Metabolic stability in male SD rat liver microsomes assessed as parent compound remaining at 1 uM measured after 30 mins in presence of NADPH by LC-MS analysis; type: ADME, Microsome; conditions: Sprague-Dawley, read-out: Stability
[6] = Apparent permeability across basolateral to apical side in human Caco-2 cells at 10 uM incubated for 1 hrs by LC-MS/MS analysis
[7] = Inhibition of IDH1 R132H mutant in human U-87 MG cells incubated for 72 hrs by measuring 2-HG production by fluorescence based analysis; type: functional, cell-based, U-87MG ATCC

Isocitrate dehydrogenase [NADP], mitochondrial, sequence (P48735 40-452 R140Q limits assumed): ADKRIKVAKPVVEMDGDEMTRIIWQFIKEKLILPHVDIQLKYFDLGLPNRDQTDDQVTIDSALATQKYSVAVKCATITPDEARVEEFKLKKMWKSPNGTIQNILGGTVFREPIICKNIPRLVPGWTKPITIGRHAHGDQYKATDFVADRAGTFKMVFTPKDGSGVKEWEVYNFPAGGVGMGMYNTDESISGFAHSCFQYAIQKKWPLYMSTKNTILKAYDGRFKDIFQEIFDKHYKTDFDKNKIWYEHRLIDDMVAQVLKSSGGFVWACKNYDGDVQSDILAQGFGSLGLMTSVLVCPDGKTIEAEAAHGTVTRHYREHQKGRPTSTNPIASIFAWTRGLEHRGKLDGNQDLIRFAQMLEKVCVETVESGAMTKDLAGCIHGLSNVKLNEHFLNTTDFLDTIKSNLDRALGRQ

Row | IC50 [1] [nM] | IC50 ([2]; Homo sapiens, U-87 MG, 72 h) [nM] | SMILES | further results
1 | 1030 | 2390 | COC1C=C(c2nc(N[C@H](C)C(F)(F)F)nc(N[C@H](C)C(F)(F)F)n2)CCC1 (stereo partly specified) | 
2 | 16 | 67 | CC(C)Nc1nc(N[C@H](C)C(F)(F)F)nc(C2=C[C@@H](O)CCC2)n1 | Papp A→B at 1 h, 10 µM [3]: 55.4 ×10⁻⁶ cm/s; remaining at 0.5 h, 1 µM [4]: 48.1%; remaining at 0.5 h, 1 µM [5]: 65%; Papp B→A at 1 h, 10 µM [6]: 34.1 ×10⁻⁶ cm/s; IC50 ([7]; Homo sapiens, U-87 MG, 72 h): 372 nM
3 | 710 | > 10000 | C=C(C)c1nc(NC(C)C)nc(N[C@H](C)C(F)(F)F)n1 | 
4 | > 3000 |  | CNC1C=C(c2nc(N[C@H](C)C(F)(F)F)nc(N[C@H](C)C(F)(F)F)n2)CCC1 (stereo partly specified) | 
5 | 83 | 1420 | CC(C)Nc1nc(N[C@H](C)C(F)(F)F)nc(C2=CCCC2)n1 | 
6 | 21 | 413 | CC(C)Nc1nc(N[C@H](C)C(F)(F)F)nc(C2=CCCCC2)n1 | Papp A→B at 1 h, 10 µM [3]: 0.9 ×10⁻⁶ cm/s; remaining at 0.5 h, 1 µM [4]: 12.5%; remaining at 0.5 h, 1 µM [5]: 13.6%; Papp B→A at 1 h, 10 µM [6]: 3.3 ×10⁻⁶ cm/s
7 | 23 | 504 | CC(C)Nc1nc(N[C@H](C)C(F)(F)F)nc(C2=CC(F)(F)CCC2)n1 | Papp A→B at 1 h, 10 µM [3]: 2.2 ×10⁻⁶ cm/s; Papp B→A at 1 h, 10 µM [6]: 4 ×10⁻⁶ cm/s
8 | 794 | 999 | CC(C)Nc1nc(N[C@H](C)C(F)(F)F)nc(C2=C[C@H](O)CCC2)n1 | 
9 | 253 |  | CC(C)Nc1nc(N[C@H](C)C(F)(F)F)nc(C2(c3ccccc3)CC2)n1 | 
10 | 2340 |  | CC(C)Nc1nc(N[C@H](C)C(F)(F)F)nc(C2=CCOCC2)n1 | 
11 | > 3000 |  | CC(C)Nc1nc(N[C@H](C)C(F)(F)F)nc(N2CCCCC2)n1 | 
12 | 166 | 156 | C[C@H](Nc1nc(N[C@H](C)C(F)(F)F)nc(C2=C(F)C(O)C(F)(F)CC2)n1)C(F)(F)F (stereo partly specified) | IC50 ([7]; Homo sapiens, U-87 MG, 72 h): 1030 nM
13 |  | 1020 | C[C@@H](Nc1nc(N[C@H](C)C(F)(F)F)nc(C2=C(F)[C@H](O)CCC2)n1)C(F)(F)F | Papp A→B at 1 h, 10 µM [3]: 60 ×10⁻⁶ cm/s; Papp B→A at 1 h, 10 µM [6]: 26 ×10⁻⁶ cm/s; IC50 ([7]; Homo sapiens, U-87 MG, 72 h): 3260 nM
14 | 1200 | 2800 | C[C@@H](Nc1nc(NCC(C)(C)O)nc(C2=CC(O)CCC2)n1)C(F)(F)F (mixture of isomers) | 
15 | 120 |  | CC(C)Nc1nc(N[C@H](C)C(F)(F)F)nc(C2=CCCC(F)C2)n1 (mixture of isomers) | 
16 | 43 | 296 | C[C@@H](Nc1nc(NC2CCCCC2)nc(C2=CC(O)CCC2)n1)C(F)(F)F (mixture of isomers) | 
17 | 222 | 707 | C[C@@H](Nc1nc(N[C@H](C)C(F)(F)F)nc(C2=C(F)C(O)C3(CC2)CC3)n1)C(F)(F)F (mixture of isomers) | IC50 ([7]; Homo sapiens, U-87 MG, 72 h): 3230 nM
18 | 28 |  | C[C@@H](Nc1nc(N[C@H](C)C(F)(F)F)nc(C2=C(F)C(O)C(F)(F)CC2)n1)C(F)(F)F (mixture of isomers) | Papp A→B at 1 h, 10 µM [3]: 50.4 ×10⁻⁶ cm/s; IC50 ([2]; u-87mg atcc): 94 nM; remaining at 0.5 h, 1 µM [4]: 95.2%; remaining at 0.5 h, 1 µM [5]: 102%; Papp B→A at 1 h, 10 µM [6]: 25.1 ×10⁻⁶ cm/s; IC50 ([7]; u-87mg atcc): 210 nM
19 | 1780 |  | CC(C)Nc1nc(N[C@H](C)C(F)(F)F)nc(C2=CCCC(O)C2)n1 (mixture of isomers) | 

Row | IC50 [1] [nM] | IC50 ([2]; Homo sapiens, U-87 MG, 72 h) [nM] | SMILES | further results
20 | 257 | 171 | C[C@@H](Nc1nc(NC2CC2)nc(C2=CC(O)CCC2)n1)C(F)(F)F (mixture of isomers) | 
21 | 111 | 319 | C[C@@H](Nc1nc(NC(C)(C)C)nc(C2=CC(O)CCC2)n1)C(F)(F)F (mixture of isomers) | 
22 | 41 | 137 | CC(C)Nc1nc(N[C@H](C)C(F)(F)F)nc(C2=CC(O)CCC2)n1 (mixture of isomers) | Papp A→B at 1 h, 10 µM [3]: 53.3 ×10⁻⁶ cm/s; remaining at 0.5 h, 1 µM [4]: 44.1%; remaining at 0.5 h, 1 µM [5]: 74.1%; Papp B→A at 1 h, 10 µM [6]: 34.6 ×10⁻⁶ cm/s; IC50 ([7]; Homo sapiens, U-87 MG, 72 h): 658 nM
23 | 35 | 86 | C[C@@H](Nc1nc(N[C@H](C)C(F)(F)F)nc(C2=CC(O)CCC2)n1)C(F)(F)F (mixture of isomers) | Papp A→B at 1 h, 10 µM [3]: 44.9 ×10⁻⁶ cm/s; remaining at 0.5 h, 1 µM [4]: 58.2%; remaining at 0.5 h, 1 µM [5]: 79.8%; Papp B→A at 1 h, 10 µM [6]: 28.6 ×10⁻⁶ cm/s; IC50 ([7]; Homo sapiens, U-87 MG, 72 h): 434 nM
24 | 85 | 1670 | CC(C)Nc1nc(N[C@H](C)C(F)(F)F)nc(C2=CC(O)CC2)n1 (mixture of isomers) | 
25 | 54 | 137 | C[C@@H](Nc1nc(N[C@H](C)C(F)(F)F)nc(C2=C(F)C(O)CCC2)n1)C(F)(F)F (mixture of isomers) | Papp A→B at 1 h, 10 µM [3]: 68.6 ×10⁻⁶ cm/s; remaining at 0.5 h, 1 µM [4]: 83.8%; remaining at 0.5 h, 1 µM [5]: 99%; Papp B→A at 1 h, 10 µM [6]: 15.5 ×10⁻⁶ cm/s; IC50 ([7]; Homo sapiens, U-87 MG, 72 h): 365 nM
26 | 43 | 181 | CC(C)Nc1nc(N[C@H](C)C(F)(F)F)nc(C2=CC(F)CCC2)n1 (mixture of isomers) | Papp A→B at 1 h, 10 µM [3]: 5.1 ×10⁻⁶ cm/s; remaining at 0.5 h, 1 µM [4]: 16.8%; remaining at 0.5 h, 1 µM [5]: 25.1%; Papp B→A at 1 h, 10 µM [6]: 5.2 ×10⁻⁶ cm/s
27 | 162 |  | CC(C)Nc1nc(N[C@H](C)C(F)(F)F)nc(C2=CCC(F)CC2)n1 (mixture of isomers) | 
28 | 337 |  | CC(C)Nc1nc(N[C@H](C)C(F)(F)F)nc(C(C)c2ccccc2)n1 (mixture of isomers) | 
29 | > 3000 |  | CC(C)Nc1nc(N[C@H](C)C(F)(F)F)nc(C2=CCC(O)CC2)n1 (mixture of isomers) | 
30 | 262 | 1540 | CC(C)C(=O)Nc1nc(N[C@H](C)C(F)(F)F)nc(C2=CC(O)CCC2)n1 (mixture of isomers) | 
31 | 21 | 100 | CC(C)CNc1nc(N[C@H](C)C(F)(F)F)nc(C2=CC(O)CCC2)n1 (mixture of isomers) | IC50 ([7]; Homo sapiens, U-87 MG, 72 h): 2470 nM
32 | 35 | 174 | CCCNc1nc(N[C@H](C)C(F)(F)F)nc(C2=CC(O)CCC2)n1 (mixture of isomers) | 
33 | 309 | 174 | C[C@H](Nc1nc(N[C@@H](C)C(F)(F)F)nc(C2=C(F)C(O)C(F)(F)CC2)n1)C(F)(F)F (mixture of isomers) | IC50 ([7]; Homo sapiens, U-87 MG, 72 h): 1320 nM
34 | 33 | 67 | C[C@@H](Nc1nc(NC2CCCC2)nc(C2=CC(O)CCC2)n1)C(F)(F)F (mixture of isomers) | Papp A→B at 1 h, 10 µM [3]: 30.9 ×10⁻⁶ cm/s; Papp B→A at 1 h, 10 µM [6]: 13.6 ×10⁻⁶ cm/s; IC50 ([7]; Homo sapiens, U-87 MG, 72 h): 733 nM
35 | 39 | 92 | C[C@@H](Nc1nc(NC2CCC2)nc(C2=CC(O)CCC2)n1)C(F)(F)F (mixture of isomers) | Papp A→B at 1 h, 10 µM [3]: 41.4 ×10⁻⁶ cm/s; remaining at 0.5 h, 1 µM [4]: 15.9%; remaining at 0.5 h, 1 µM [5]: 34%; Papp B→A at 1 h, 10 µM [6]: 27.5 ×10⁻⁶ cm/s
36 | 68 | 336 | CCNc1nc(N[C@H](C)C(F)(F)F)nc(C2=CC(O)CCC2)n1 (mixture of isomers) | 
37 | > 3000 |  | COCCNc1nc(N[C@H](C)C(F)(F)F)nc(C2=CC(O)CCC2)n1 (mixture of isomers) | 
38 | 145 |  | C[C@@H](Nc1nc(N[C@H](C)C(F)(F)F)nc(C2=C(F)C(O)C(F)(F)CC2)n1)C(F)(F)F (stereo in doubt; 42) | IC50 ([2]; u-87mg atcc): 845 nM; IC50 ([7]; u-87mg atcc): 1890 nM

Row | SMILES | IC50 [1] [nM] | IC50 ([2]; Homo sapiens, U-87 MG, 72 h) [nM] | further results
39 | CC(C)Nc1nc(N[C@H](C)C(F)(F)F)nc(C2=CCN(C)CC2)n1 | > 3000 |  | 

Reference: ChEMBL document CHEMBL6103672, “Discovery of HMPL-306 (Ranosidenib), a New Potent and Selective Dual Inhibitor of Mutant IDH1 and 2 in Clinical Development for Cancer Treatment” (ACS Med Chem Lett, 2025)
